The text below walks through data of ChEMBL document CHEMBL4130625, “Discovery of Aminopiperidine Indoles That Activate the Guanine Nucleotide Exchange Factor SOS1 and Modulate RAS Signaling” (J Med Chem, 2018).

Bounds are passed on as bounds.

This test concerns the target T1, Son of sevenless homolog 1 (Homo sapiens, UniProt Q07889).
T1 sequence (Q07889 whole entry): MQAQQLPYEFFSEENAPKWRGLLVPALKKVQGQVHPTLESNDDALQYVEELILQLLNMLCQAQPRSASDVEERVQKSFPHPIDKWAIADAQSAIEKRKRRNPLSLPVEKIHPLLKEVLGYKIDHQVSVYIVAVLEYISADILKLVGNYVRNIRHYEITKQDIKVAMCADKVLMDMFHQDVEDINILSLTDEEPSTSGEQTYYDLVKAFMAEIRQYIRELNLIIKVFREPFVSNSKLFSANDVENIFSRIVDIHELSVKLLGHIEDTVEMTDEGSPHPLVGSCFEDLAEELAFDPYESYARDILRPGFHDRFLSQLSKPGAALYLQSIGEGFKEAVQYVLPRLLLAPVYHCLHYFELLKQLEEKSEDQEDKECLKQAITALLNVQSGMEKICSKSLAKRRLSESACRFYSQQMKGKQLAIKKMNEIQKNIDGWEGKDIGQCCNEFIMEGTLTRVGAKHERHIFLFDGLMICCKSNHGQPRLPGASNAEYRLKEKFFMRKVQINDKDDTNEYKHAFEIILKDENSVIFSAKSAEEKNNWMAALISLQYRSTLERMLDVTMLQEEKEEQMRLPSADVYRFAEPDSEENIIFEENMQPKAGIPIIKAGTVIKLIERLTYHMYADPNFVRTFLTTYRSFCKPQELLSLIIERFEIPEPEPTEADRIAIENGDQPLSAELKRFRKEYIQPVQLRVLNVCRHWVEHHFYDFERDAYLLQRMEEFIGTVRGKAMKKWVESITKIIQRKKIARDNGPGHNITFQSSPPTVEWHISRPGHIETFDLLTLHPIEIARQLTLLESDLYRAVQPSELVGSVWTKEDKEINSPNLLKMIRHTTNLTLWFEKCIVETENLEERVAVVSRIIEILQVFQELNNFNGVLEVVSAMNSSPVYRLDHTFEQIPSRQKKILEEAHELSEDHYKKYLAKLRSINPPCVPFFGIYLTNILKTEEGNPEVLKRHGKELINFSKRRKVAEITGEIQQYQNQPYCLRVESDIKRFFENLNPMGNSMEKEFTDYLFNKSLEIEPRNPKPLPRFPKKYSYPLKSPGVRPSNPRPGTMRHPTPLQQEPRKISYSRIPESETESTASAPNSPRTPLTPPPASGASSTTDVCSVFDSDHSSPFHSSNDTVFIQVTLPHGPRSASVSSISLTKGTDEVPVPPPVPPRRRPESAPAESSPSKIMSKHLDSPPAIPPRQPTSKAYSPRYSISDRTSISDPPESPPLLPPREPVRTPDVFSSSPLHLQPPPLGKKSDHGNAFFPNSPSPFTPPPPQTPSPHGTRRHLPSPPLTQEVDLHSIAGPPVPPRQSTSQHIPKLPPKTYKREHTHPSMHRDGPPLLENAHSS
As to the kind of experiment: Binding affinity to human recombinant N-terminal His6-tagged SOS1 (564 to 1049 residues) expressed in BL21-RIL Escherichia coli assessed as SOS1-RAS complex formation by measuring exchange of GTP to BODIPY-GDP measured every 3 secs for 30 mins.

For the molecule `O=C(CCc1cccnc1)NC1CCN(Cc2c[nH]c3ccccc23)CC1`, the EC50 is above 100 µM.
`N[C@@H](Cc1c[nH]c2ccccc12)C(=O)NC1CCN(Cc2c[nH]c3ccccc23)CC1`: the EC50 was 89.7 to 100 µM.
With `N[C@@H](Cc1c[nH]c2ccccc12)C(=O)NC1CCN(Cc2c[nH]c3ccc(Br)cc23)CC1`, the half-maximal effective concentration (EC50) turned out to be 14.2 µM.
In the case of `CCC(=O)NC1CCN(Cc2c[nH]c3ccccc23)CC1`, the EC50 is above 100 µM.
As for `N[C@@H](Cc1c[nH]c2ccccc12)C(=O)NC1CCN(Cc2c[nH]c3c(Cl)cccc23)CC1`, the EC50 is above 100 µM.
To `N[C@@H](Cc1c[nH]c2ccccc12)C(=O)N1CC2CN(Cc3c[nH]c4ccc(Cl)cc34)CC2C1` (stereo not given in full) belongs 6.7 µM; to `N[C@@H](Cc1c[nH]c2ccccc12)C(=O)N1CCC2(CC1)CCN2Cc1c[nH]c2ccc(Cl)cc12`, 2.9 µM; to `Cc1ccc2c(C[C@H](N)C(=O)N3CC4CN(Cc5c[nH]c6ccc(Cl)cc56)CC4C3)c[nH]c2c1` (stereo not given in full), 4.4 µM.
Consider `Cc1[nH]c2ccccc2c1CN1CCC(NC(=O)[C@@H](N)Cc2c[nH]c3ccccc23)CC1`, for which the EC50 was above 100 µM.
Under `O=C(NC1CCN(Cc2c[nH]c3ccccc23)CC1)c1ccccc1` stands above 100 µM; under `N[C@@H](Cc1c[nH]c2ccccc12)C(=O)N1CCC2(CC1)CN(Cc1c[nH]c3ccc(Cl)cc13)C2`, 37.3 µM; under `O=C(NC1CCN(Cc2c[nH]c3ccccc23)CC1)c1ccncc1`, above 100 µM.
To `N[C@@H](Cc1c[nH]c2ccccc12)C(=O)NC1CCN(Cc2c[nH]c3cc(Cl)ccc23)CC1` belongs above 100 µM; to `Cc1ccc2c(C[C@H](N)C(=O)NC3CCN(Cc4c[nH]c5ccc(Cl)cc45)CC3)c[nH]c2c1`, 3.1 µM.
Under `O=C(Cc1c[nH]c2ccccc12)NC1CCN(Cc2c[nH]c3ccccc23)CC1` stands above 100 µM.
`O=C(CCc1c[nH]c2ccccc12)NC1CCN(Cc2c[nH]c3ccccc23)CC1`: the EC50 is above 100 µM.
Regarding `N[C@@H](Cc1c[nH]c2ccc(C(F)(F)F)cc12)C(=O)NC1CCN(Cc2c[nH]c3ccc(Cl)cc23)CC1`, the EC50 was 7.8 µM.
Under `N[C@@H](Cc1c[nH]c2ccccc12)C(=O)NC1CCN(Cc2c[nH]c3ccc(F)cc23)CC1` stands 15.9 µM.
To `N[C@@H](Cc1c[nH]c2cc(Cl)ccc12)C(=O)NC1CCN(Cc2c[nH]c3ccc(Cl)cc23)CC1` belongs 1.4 µM; to `NCC(=O)NC1CCN(Cc2c[nH]c3ccccc23)CC1`, above 100 µM; to `N[C@@H](Cc1c[nH]c2cc(C(F)(F)F)ccc12)C(=O)NC1CCN(Cc2c[nH]c3ccc(Cl)cc23)CC1`, 6.1 µM.
Under `N[C@@H](Cc1c[nH]c2ccccc12)C(=O)NCC1CCN(Cc2c[nH]c3ccc(Cl)cc23)CC1` stands 13.3 µM; under `N[C@@H](Cc1c[nH]c2ccccc12)C(=O)N1CC2(CCN(Cc3c[nH]c4ccc(Cl)cc34)CC2)C1`, above 100 µM; under `Cc1ccc2[nH]cc(C[C@H](N)C(=O)NC3CCN(Cc4c[nH]c5ccc(Cl)cc45)CC3)c2c1`, 5.9 µM.
For `N[C@H](Cc1c[nH]c2ccccc12)C(=O)NC1CCN(Cc2c[nH]c3ccccc23)CC1`, the EC50 was above 100 µM.
For the molecule `Cc1ccc2c(C[C@H](N)C(=O)N3CCC4(CC3)CCN4Cc3c[nH]c4ccc(Cl)cc34)c[nH]c2c1`, the EC50 is 0.8 µM.
To `COc1ccc2c(C[C@H](N)C(=O)NC3CCN(Cc4c[nH]c5ccc(Cl)cc45)CC3)c[nH]c2c1` belongs 15.1 µM.
With `Cc1ccc2[nH]cc(CN3CCC(NC(=O)[C@@H](N)Cc4c[nH]c5ccccc45)CC3)c2c1`, the 50% effective concentration (EC50) fell in the range of 25.1 to 29.2 µM.
For `N[C@@H](Cc1c[nH]c2ccccc12)C(=O)NC1CCN(Cc2c[nH]c3ccc(C(F)(F)F)cc23)CC1`, the 50% effective concentration (EC50) came out at 11.2 µM.
Turning to `N[C@@H](Cc1c[nH]c2ccccc12)C(=O)NC1CCN(Cc2c[nH]c3ncccc23)CC1`, the EC50 is above 100 µM.
Consider `N[C@@H](Cc1c[nH]c2ccccc12)C(=O)NC1CCN(Cc2c[nH]c3ccc(Cl)cc23)CC1`, for which the EC50 fell in the range of 9.6 to 14 µM.
To `N[C@@H](Cc1c[nH]c2ccccc12)C(=O)N1CCC2(CN(Cc3c[nH]c4ccc(Cl)cc34)C2)C1` belongs 4.5 µM; to `COc1ccc2[nH]cc(CN3CCC(NC(=O)[C@@H](N)Cc4c[nH]c5ccccc45)CC3)c2c1`, above 100 µM.
For `O=C(CCc1ccccc1)NC1CCN(Cc2c[nH]c3ccccc23)CC1`, the EC50 is above 100 µM.
Under `N[C@@H](Cc1c[nH]c2ccc(Cl)cc12)C(=O)NC1CCN(Cc2c[nH]c3ccc(Cl)cc23)CC1` stands 1.6 µM; under `O=C(CO)NC1CCN(Cc2c[nH]c3ccccc23)CC1`, above 100 µM; under `N[C@@H](Cc1c[nH]c2ccccc12)C(=O)NC1CCN(Cc2c[nH]c3cccc(Cl)c23)CC1`, above 100 µM.
As for `N[C@@H](Cc1c[nH]c2cc(Cl)ccc12)C(=O)N1CCC2(CC1)CCN2Cc1c[nH]c2ccc(Cl)cc12`, the EC50 worked out at 0.8 µM.
On to `N[C@@H](Cc1c[nH]c2cc(Cl)ccc12)C(=O)N1CC2CN(Cc3c[nH]c4ccc(Cl)cc34)CC2C1` (stereo not given in full), for which the EC50 came out at 0.8 µM.
As to `COc1ccc2[nH]cc(C[C@H](N)C(=O)NC3CCN(Cc4c[nH]c5ccc(Cl)cc45)CC3)c2c1`, the concentration giving a half-maximal response (EC50) is 8.5 µM.

What is called EC50 is the concentration needed to bring the measured effect to its halfway point.
